Values quoted from earlier work as cited in PubChem BioAssay AID1259409 (Chemical Carcinogenesis Research Information System (CCRIS), 2018).

Test system: rodent chemically induced tumor inhibition, incidence and multiplicity
Experiment: CCRIS tumor inhibitor studies
Details: Species: MOUSE
[1] = Carcinogen: 7,12-DIMETHYLBENZ[A]ANTHRACENE, 57-97-6, Dose [Inhibitor]: 0, 85 NMOL IN 0.1 ML ACETONE 2/WK FOR 20 WK APPLIED 1 HR PRIOR TO EACH PROMOTER DOSE (STUDY DURATION: 21 WK), Route [Inhibitor]: DERMAL, Strain/Sex: ICR/FEMALE, Target Tissue: Type of Lesion: SKIN: PAPILLOMA, Dose [Carcinogen]: 390 NMOL IN 0.1 ML ACETONE ONCE, Promoter: 12-O-TETRADECANOYLPHORBOL-13-ACETATE, 16561-29-8

Structure (SMILES)	tumour outcome (control, treated, inhibition, significance) (Carcinogen: 7,12-DIMETHYLBENZ[A]ANTHRACENE, 57-97-6, Dose [Inhibitor]: 100 UG IN 0.2 ML ACETONE ONCE 5 MIN BEFORE CARCINOGEN TREATMENT (STUDY DURATION: 31 WK), Route [Inhibitor]: DERMAL, Strain/Sex: CD-1/FEMALE, Target Tissue: Type of Lesion: SKIN: PAPILLOMA, Dose [Carcinogen]: 10 NMOL IN 0.2 ML ACETONE ONCE, Promoter: 12-O-TETRADECANOYLPHORBOL-13-ACETATE, 16561-29-8)	tumour outcome (control, treated, inhibition, significance) (Carcinogen: (+/-)-7BETA,8ALPHA-DIHYDROXY-9ALPHA,10ALPHA-EPOXY-7,8,9,10-TETRAHYDROBENZO[A]PYR ENE, 58917-67-2, Dose [Inhibitor]: 0, 1400 NMOL (TOTAL DOSE) 10 MIN PRIOR TO CARCINOGEN DOSE INJECTED AS 1/7, 2/7, AND 4/7 OF THE TOTAL ON DAYS 1, 8, AND 1, Route [Inhibitor]: INTRAPERITONEAL, Strain/Sex: ICR/MALE,FEMALE, Target Tissue: Type of Lesion: LUNG: TUMOR, Dose [Carcinogen]: 30 NMOL (TOTAL DOSE) INJECTED IN DOSES OF 1/7, 2/7, AND 4/7 ON DAYS 1,8, AND 15 OF LIFE, RESPECTIVELY, Promoter: NONE USED)	tumour outcome (control, treated, inhibition, significance) (Carcinogen: (+/-)-7BETA,8ALPHA-DIHYDROXY-9ALPHA,10ALPHA-EPOXY-7,8,9,10-TETRAHYDROBENZO[A]PYR ENE, 58917-67-2, Dose [Inhibitor]: 0, 1400 NMOL (TOTAL DOSE) APPLIED 10 MIN PRIOR TO CARCINOGEN DOSE INJECTED AS 1/7, 2/7, AND 4/7 OF THE TOTAL ON DAYS 1,, Route [Inhibitor]: INTRAPERITONEAL, Strain/Sex: ICR/MALE,FEMALE, Target Tissue: Type of Lesion: LUNG: TUMOR, Dose [Carcinogen]: 15 NMOL (TOTAL DOSE) INJECTED IN DOSES OF 1/7, 2/7, AND 4/7 ON DAYS 1, 8, AND 15 OF LIFE, RESPECTIVELY, Promoter: NONE USED)	tumour outcome (control, treated, inhibition, significance) (Carcinogen: BENZO[A]PYRENE, 50-32-8, Dose [Inhibitor]: 0, 1400 NMOL (TOTAL DOSE) APPLIED 10 MIN PRIOR TO CARCINOGEN DOSE INJECTED AS 1/7, 2/7, AND 4/7 OF THE TOTAL ON DAYS 1,, Route [Inhibitor]: INTRAPERITONEAL, Strain/Sex: ICR/MALE,FEMALE, Target Tissue: Type of Lesion: LUNG: TUMOR, Dose [Carcinogen]: 450 NMOL (TOTAL DOSE) INJECTED IN DOSES OF 1/7, 2/7, AND 4/7 ON DAYS 1, 8, AND 15 OF LIFE, RESPECTIVELY, Promoter: NONE USED)	tumour outcome (control, treated, inhibition, significance) [1]
O=c1c(O)c(-c2cc(O)c(O)c(O)c2)oc2cc(O)cc(O)c12	87%, 85%, 2%, not calculated	93%, 65%, 30%, p<0.05	63%, 36%, 43%, p<0.05	73%, 79%, -8%, not significant	–
CCCC/C=C\C=C/O[C@@H](CC)CCC(CCC)CCCCCCCC(=O)O[C@]1(O)[C@]2(O)O[C@H](CO[C@H]3O[C@H](CO)[C@H](O)[C@H](O)[C@H]3O)[C@H](O)[C@@]1(O)O2 (stereo partly specified)	–	–	–	–	100%, 68%, 32%, p<0.05
CC/C=C\C/C=C\C/C=C\CCCCCCCC(=O)OC[C@H](CO[C@@H]1O[C@H](CO[C@H]2O[C@H](CO)[C@H](O)[C@H](O)[C@H]2O)[C@H](O)[C@H](O)[C@H]1O)OC(=O)CCCCCCCCCCCCC	–	–	–	–	100%, 68%, 32%, p<0.05
